Measured values from patent publication US20240158446A1, “CYCLIC COMPOUND HAVING SELECTIVE INHIBITORY ACTION ON KRAS OVER HRAS AND NRAS” (CHUGAI SEIYAKU KABUSHIKI KAISHA, priority 2021, published 2024).
Like-named read-outs stand apart in the source and are kept apart here.

Key:
[1] = target: GDP-bound KRAS wild-type protein (Homo sapiens, UniProt P01116); experiment: Binding to KRAS by surface plasmon resonance (SPR), Single Cycle Kinetics; conditions: GDP-bound KRAS wild-type protein, read-out: KRAS KD
[2] = target: GDP-bound NRAS wild-type protein (Homo sapiens, UniProt P01111); experiment: Binding to NRAS by surface plasmon resonance (SPR), Single Cycle Kinetics; conditions: for NRAS/KRAS (ratio of KD value for NRAS to KD value for KRAS): GDP-bound NRAS wild-type protein vs GDP-bound KRAS wild-type protein
[3] = target: GDP-bound HRAS wild-type protein (Homo sapiens, UniProt P01112); experiment: Binding to HRAS by surface plasmon resonance (SPR), Single Cycle Kinetics; conditions: for HRAS/KRAS (ratio of KD value for HRAS to KD value for KRAS): GDP-bound HRAS wild-type protein vs GDP-bound KRAS wild-type protein
[4] = system: human lung cancer strain NCI-H441;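 note: cell proliferation inhibition after four days measured by CellTiter-Glo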

GDP-bound HRAS wild-type protein, sequence (P01112 whole entry): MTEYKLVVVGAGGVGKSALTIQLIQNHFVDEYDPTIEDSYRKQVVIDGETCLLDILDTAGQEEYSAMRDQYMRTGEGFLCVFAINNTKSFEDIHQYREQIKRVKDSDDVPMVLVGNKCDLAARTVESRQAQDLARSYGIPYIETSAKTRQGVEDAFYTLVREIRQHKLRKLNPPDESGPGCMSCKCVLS
GDP-bound KRAS wild-type protein, sequence (P01116 whole entry): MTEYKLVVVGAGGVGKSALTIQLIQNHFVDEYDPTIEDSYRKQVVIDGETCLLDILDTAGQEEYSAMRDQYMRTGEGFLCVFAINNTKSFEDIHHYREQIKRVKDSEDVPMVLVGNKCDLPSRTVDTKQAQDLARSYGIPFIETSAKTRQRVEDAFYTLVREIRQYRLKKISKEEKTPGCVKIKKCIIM
GDP-bound NRAS wild-type protein, sequence (P01111 whole entry): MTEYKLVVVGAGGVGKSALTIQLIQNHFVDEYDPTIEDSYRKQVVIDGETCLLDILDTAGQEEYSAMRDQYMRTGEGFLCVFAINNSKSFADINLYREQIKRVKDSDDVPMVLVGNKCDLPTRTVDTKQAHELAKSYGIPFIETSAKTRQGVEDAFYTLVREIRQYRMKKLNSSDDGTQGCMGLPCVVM

Row | SMILES | Kd ([1]; SPR, Single Cycle Kinetics) | NRAS/KRAS (ratio of KD value for NRAS to KD value for KRAS) ([2]; SPR) | ratio of the KD value with respect to GDP-bound NRAS wild-type protein to the KD value with respect to KRAS ([2]; SPR, KD(NRAS)/KD(KRAS)) | HRAS/KRAS (ratio of KD value for HRAS to KD value for KRAS) ([3]; SPR) | ratio of the KD value with respect to GDP-bound HRAS wild-type protein to the KD value with respect to KRAS ([3]; SPR, KD(HRAS)/KD(KRAS)) | IC50 ([4]; read-out: NCI-H441 cell proliferation inhibitory activity, 50% proliferation inhibitory concentration (IC50 value), NCI-H441, four days, CellTiter-Glo) | IC50 [4] | Kd ([1]; SPR Single Cycle Kinetics, 1:1 binding model) | NRAS/KRAS (ratio of KD value with respect to GDP-bound NRAS wild-type protein to KD value with respect to KRAS) ([2]; SPR KD ratio NRAS/KRAS, class symbols) | HRAS/KRAS (ratio of KD value with respect to GDP-bound HRAS wild-type protein to KD value with respect to KRAS) ([3]; SPR KD ratio HRAS/KRAS, class symbols)
1 | CC[C@H](C)[C@@H]1NC(=O)[C@@H]2CCCCc3ccc(cc3)C[C@@H](C(=O)N(C)CC(=O)N[C@@H](CCc3ccc(C(F)(F)F)c(OC)c3)C(=O)N3C[C@H](OC(C)C)C[C@H]3C(=O)NC3(CC(C)(C)C3)C(=O)N(C)[C@@H](C3CCCC3)C(=O)N(C)[C@H](C(=O)N(C)CC)CC(=O)N2C)N2CC/C=C\C[C@@H](C2=O)N(C)C(=O)CN(C)C1=O [PP3078] | 0.048 nM | A (a compound having 10 or more and less than 20 is denoted as A) | A (a compound having 10 or more and less than 20 is denoted as A) | B (a compound having 3 or more and less than 10 is denoted as B) | B (a compound having 3 or more and less than 10 is denoted as B) | 2.3 nM |  |  |  | 
2 | CCC(CC)[C@H]1C(=O)N(C)[C@H](C(=O)N(C)C)CC(=O)N(C)[C@@H](CC2CC2)C(=O)N[C@@H]([C@@H](C)CC)C(=O)N(C)CC(=O)N(C)[C@H]2C/C=C\CCN(C2=O)[C@@H](CC2CCC(F)(F)CC2)C(=O)N(C)CC(=O)N[C@@H](CCc2ccc(C(F)(F)F)c(OC)c2)C(=O)N2C[C@@H](C)C[C@H]2C(=O)NC2(CC(C)(C)C2)C(=O)N1C [PP2494] | 1.8 nM | A (a compound having 10 or more and less than 20 is denoted as A) |  | A (a compound having 10 or more and less than 20 is denoted as A) |  |  | 39.6 nM |  |  | 
3 | CC[C@H](C)[C@@H]1NC(=O)[C@H](COC)N(C)C(=O)C[C@@H](C(=O)N(C)CC)N(C)C(=O)[C@H](C2CCCC2)N(C)C(=O)C2(CC(C)(C)C2)NC(=O)[C@@H]2C[C@H](C)CN2C(=O)[C@H](CCc2cc(F)c(C(F)(F)F)c(F)c2)NC(=O)CN(C)C(=O)[C@H](Cc2ccc(C)cc2)N2CC/C=C\C[C@@H](C2=O)N(C)C(=O)CN(C)C1=O [PP2437] | 0.12 nM | A (a compound having 10 or more and less than 20 is denoted as A) |  | A (a compound having 10 or more and less than 20 is denoted as A) |  |  | 18.8 nM |  |  | 
4 | CCC[C@H]1C(=O)N[C@@H](CC(C)C)C(=O)N(C2CC2)CC(=O)N(C)[C@H]2C/C=C\CCN(C2=O)[C@@H](Cc2ccc(C)cc2)C(=O)N(C)CC(=O)N[C@@H](CCc2cc(F)c(C(F)(F)F)c(F)c2)C(=O)N2C[C@H](OCC)C[C@H]2C(=O)NC2(CCC2)C(=O)N(C)[C@@H](C2CCCC2)C(=O)N(C)[C@H](C(=O)N(C)C)CC(=O)N1C [PP2532] |  |  |  |  |  |  | 144 nM | 4.1 nM | A (a compound having 10 or more and less than 20 is denoted as A) | B (a compound having 3 or more and less than 10 is denoted as B)
5 | CCO[C@@H]1C[C@H]2C(=O)NC3(CC(C)(C)C3)C(=O)N(C)[C@@H](C3CCCC3)C(=O)N(C)[C@H](C(=O)N(CC)CC)CC(=O)N(C)[C@@H](COC)C(=O)N[C@@H]([C@@H](C)CC)C(=O)N(C)CC(=O)N(C)[C@H]3C/C=C\CCN(C3=O)[C@@H](Cc3ccc(C)cc3)C(=O)N(C)CC(=O)N[C@@H](CCc3ccc(C(F)(F)F)c(Cl)c3)C(=O)N2C1 [PP2400] | 0.2 nM | A (a compound having 10 or more and less than 20 is denoted as A) |  | A (a compound having 10 or more and less than 20 is denoted as A) |  |  | 5.8 nM |  |  | 
